Data reported in ChEMBL document CHEMBL3991601, “The target landscape of clinical kinase drugs” (Science, 2017).
The source made the active and inactive calls. Rule as the data show it, for most assays here: actives have a measured Kd and inactives only a lower limit.

What was measured:
[1] = target: Glycogen synthase kinase-3 beta (Homo sapiens, UniProt P49841)
[2] = target: Membrane-associated progesterone receptor component 1 (Homo sapiens, UniProt O00264)
[3] = target: Tyrosine-protein kinase CSK (Homo sapiens, UniProt P41240)
[4] = target: Casein kinase I isoform delta (Homo sapiens, UniProt P48730)
[5] = target: Activin receptor type-2B (Homo sapiens, UniProt Q13705)
[6] = target: Ras-related protein Rab-6A (Homo sapiens, UniProt P20340)
[7] = target: Calcium/calmodulin-dependent protein kinase type II subunit gamma (Homo sapiens, UniProt Q13555)
[8] = target: Cyclin-dependent kinase 5 (Homo sapiens, UniProt Q00535)
[9] = target: GTP-binding nuclear protein Ran (Homo sapiens, UniProt P62826)
[10] = target: T1, Serine/threonine-protein kinase PLK4 (Homo sapiens, UniProt O00444)
T1 sequence (O00444 whole entry): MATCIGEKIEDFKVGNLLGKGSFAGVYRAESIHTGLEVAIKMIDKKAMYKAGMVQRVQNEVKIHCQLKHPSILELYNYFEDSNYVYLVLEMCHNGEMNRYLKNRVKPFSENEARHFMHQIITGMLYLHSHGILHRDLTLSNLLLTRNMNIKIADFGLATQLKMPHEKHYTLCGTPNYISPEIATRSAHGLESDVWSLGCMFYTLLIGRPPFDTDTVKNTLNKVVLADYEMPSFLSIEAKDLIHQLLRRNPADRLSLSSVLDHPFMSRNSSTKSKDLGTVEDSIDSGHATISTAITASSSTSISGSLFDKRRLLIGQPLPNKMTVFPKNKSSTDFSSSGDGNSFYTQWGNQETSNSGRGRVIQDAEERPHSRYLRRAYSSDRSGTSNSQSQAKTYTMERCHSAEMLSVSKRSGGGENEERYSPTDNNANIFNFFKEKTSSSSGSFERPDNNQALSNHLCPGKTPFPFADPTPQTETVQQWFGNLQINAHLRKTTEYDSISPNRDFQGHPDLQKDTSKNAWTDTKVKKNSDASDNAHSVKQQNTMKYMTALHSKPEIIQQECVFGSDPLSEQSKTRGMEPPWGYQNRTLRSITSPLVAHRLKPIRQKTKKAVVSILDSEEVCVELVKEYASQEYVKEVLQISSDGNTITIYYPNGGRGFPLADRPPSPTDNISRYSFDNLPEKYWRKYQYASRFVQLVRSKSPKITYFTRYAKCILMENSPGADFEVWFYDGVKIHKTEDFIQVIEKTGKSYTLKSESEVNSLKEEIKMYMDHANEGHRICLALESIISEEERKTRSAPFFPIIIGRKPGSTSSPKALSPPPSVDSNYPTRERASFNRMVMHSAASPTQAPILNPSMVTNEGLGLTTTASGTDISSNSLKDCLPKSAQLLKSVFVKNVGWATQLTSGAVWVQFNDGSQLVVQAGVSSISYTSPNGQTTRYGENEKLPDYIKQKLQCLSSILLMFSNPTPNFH

[11] = target: Mitogen-activated protein kinase kinase kinase kinase 1 (Homo sapiens, UniProt Q92918)
[12] = target: LIM domain kinase 1 (Homo sapiens, UniProt P53667)
[13] = target: Citron Rho-interacting kinase (Homo sapiens, UniProt O14578)
[14] = target: Cyclin-dependent kinase 4 (Homo sapiens, UniProt P11802)
[15] = target: Cyclin-dependent kinase 2 (Homo sapiens, UniProt P24941)
[16] = target: T2, Adenine phosphoribosyltransferase (Homo sapiens, UniProt P07741)
T2 sequence (P07741 whole entry): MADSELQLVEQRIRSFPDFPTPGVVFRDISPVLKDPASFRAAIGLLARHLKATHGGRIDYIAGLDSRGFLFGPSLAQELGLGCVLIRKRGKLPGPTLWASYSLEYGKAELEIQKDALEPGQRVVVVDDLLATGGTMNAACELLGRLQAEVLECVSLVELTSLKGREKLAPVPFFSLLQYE

[17] = target: RAC-alpha serine/threonine-protein kinase (Homo sapiens, UniProt P31749)
[18] = target: T3, Mitogen-activated protein kinase 15 (Homo sapiens, UniProt Q8TD08)
T3 sequence (Q8TD08 whole entry): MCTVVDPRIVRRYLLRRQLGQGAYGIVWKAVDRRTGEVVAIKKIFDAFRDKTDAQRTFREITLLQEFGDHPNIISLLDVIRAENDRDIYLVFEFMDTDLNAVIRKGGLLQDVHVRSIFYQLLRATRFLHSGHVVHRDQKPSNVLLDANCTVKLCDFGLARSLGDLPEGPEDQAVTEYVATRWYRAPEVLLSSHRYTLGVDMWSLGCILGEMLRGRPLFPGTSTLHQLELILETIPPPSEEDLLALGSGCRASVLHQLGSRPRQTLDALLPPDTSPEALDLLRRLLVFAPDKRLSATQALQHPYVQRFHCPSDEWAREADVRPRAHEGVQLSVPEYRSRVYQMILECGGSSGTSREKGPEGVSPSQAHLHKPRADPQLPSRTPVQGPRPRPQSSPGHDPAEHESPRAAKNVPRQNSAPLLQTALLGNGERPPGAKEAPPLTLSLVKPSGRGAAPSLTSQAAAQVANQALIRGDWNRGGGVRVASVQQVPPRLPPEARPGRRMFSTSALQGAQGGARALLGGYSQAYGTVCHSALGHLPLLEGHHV

[19] = target: GTP-binding protein 4 (Homo sapiens, UniProt Q9BZE4)
Also: in the data inactive means no Kd found up to 30 µM.

Mitogen-activated protein kinase kinase kinase kinase 1, sequence (Q92918 whole entry, the tested form may be a part): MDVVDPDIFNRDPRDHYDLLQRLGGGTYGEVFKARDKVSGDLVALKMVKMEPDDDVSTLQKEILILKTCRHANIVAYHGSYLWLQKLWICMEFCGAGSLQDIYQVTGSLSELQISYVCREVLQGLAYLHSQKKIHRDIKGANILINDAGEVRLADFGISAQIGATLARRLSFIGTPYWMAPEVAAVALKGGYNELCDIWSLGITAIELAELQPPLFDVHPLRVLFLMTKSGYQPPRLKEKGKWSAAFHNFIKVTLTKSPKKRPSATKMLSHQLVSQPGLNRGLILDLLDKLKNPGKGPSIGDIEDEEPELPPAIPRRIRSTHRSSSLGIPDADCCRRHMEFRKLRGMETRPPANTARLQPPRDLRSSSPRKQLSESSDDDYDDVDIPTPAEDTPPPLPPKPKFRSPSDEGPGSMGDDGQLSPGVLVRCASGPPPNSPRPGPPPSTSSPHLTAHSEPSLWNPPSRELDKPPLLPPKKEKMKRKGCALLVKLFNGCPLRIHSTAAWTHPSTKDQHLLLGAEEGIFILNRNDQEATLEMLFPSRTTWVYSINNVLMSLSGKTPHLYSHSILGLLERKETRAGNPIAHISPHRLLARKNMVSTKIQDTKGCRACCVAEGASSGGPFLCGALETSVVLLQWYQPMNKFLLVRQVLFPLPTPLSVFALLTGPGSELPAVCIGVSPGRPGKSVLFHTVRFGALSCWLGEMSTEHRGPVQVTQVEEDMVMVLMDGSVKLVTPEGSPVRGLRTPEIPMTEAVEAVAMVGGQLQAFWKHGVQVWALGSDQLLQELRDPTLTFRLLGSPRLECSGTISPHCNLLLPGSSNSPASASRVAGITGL
Activin receptor type-2B, sequence (Q13705 whole entry): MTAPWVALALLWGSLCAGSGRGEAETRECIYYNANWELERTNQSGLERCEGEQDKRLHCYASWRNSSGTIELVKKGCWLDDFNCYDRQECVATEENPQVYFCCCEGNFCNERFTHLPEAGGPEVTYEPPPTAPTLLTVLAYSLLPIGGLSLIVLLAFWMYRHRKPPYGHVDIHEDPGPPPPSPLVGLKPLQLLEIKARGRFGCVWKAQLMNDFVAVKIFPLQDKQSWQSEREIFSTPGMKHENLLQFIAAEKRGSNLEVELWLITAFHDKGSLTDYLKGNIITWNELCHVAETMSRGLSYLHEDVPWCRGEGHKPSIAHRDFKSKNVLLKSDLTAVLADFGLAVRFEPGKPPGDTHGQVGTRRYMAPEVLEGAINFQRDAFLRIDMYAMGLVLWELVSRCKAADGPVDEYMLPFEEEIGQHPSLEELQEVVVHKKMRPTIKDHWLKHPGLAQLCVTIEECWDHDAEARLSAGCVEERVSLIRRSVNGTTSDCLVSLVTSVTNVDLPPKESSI
Citron Rho-interacting kinase, sequence (O14578 whole entry): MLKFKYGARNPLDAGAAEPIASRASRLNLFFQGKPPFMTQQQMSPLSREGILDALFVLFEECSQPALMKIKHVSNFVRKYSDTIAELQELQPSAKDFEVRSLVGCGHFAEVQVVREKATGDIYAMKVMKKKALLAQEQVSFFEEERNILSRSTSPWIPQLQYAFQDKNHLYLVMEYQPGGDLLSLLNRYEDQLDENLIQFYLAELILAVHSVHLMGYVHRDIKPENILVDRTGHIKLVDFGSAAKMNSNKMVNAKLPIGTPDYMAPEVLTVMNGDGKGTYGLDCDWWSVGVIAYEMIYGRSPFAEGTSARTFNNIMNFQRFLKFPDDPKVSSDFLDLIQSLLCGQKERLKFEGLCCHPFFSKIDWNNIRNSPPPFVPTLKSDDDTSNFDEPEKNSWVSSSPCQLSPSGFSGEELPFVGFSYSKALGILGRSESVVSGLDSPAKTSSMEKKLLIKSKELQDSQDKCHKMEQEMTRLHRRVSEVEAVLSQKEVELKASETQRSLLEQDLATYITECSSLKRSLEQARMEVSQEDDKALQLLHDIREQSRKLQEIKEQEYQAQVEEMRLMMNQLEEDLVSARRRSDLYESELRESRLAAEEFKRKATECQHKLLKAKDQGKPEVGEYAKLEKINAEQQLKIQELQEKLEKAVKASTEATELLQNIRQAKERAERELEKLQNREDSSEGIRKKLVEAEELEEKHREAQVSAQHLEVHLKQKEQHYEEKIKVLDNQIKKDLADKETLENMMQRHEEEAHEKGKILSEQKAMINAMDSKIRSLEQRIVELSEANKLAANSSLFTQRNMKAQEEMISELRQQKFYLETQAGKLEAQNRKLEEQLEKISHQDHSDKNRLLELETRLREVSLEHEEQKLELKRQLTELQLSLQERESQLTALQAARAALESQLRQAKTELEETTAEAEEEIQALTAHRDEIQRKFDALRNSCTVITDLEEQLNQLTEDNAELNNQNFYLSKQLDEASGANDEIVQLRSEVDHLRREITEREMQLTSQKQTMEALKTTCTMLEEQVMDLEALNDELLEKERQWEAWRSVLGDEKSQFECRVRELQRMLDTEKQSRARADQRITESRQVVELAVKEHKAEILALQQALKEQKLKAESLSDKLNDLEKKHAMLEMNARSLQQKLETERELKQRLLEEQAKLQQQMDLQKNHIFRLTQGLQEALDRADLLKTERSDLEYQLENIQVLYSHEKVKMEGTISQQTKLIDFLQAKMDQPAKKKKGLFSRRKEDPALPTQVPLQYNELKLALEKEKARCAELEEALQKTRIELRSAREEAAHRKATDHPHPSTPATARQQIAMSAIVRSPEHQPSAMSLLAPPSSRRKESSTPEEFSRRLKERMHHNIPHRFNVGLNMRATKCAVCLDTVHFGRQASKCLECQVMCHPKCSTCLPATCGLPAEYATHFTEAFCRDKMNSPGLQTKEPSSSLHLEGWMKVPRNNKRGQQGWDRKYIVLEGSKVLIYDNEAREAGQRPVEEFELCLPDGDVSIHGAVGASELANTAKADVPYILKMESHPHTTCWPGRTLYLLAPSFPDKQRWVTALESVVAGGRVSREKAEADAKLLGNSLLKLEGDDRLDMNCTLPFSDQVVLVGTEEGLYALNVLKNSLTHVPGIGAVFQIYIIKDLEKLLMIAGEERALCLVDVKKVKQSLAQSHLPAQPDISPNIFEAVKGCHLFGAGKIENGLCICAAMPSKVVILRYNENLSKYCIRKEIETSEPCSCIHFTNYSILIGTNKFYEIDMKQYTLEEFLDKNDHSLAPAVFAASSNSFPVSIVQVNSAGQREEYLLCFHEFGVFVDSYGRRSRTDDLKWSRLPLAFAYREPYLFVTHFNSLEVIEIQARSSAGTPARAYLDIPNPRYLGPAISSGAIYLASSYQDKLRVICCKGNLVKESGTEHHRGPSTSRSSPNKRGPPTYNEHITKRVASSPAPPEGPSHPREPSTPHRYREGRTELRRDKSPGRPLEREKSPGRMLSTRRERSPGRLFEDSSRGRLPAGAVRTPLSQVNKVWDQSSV
Membrane-associated progesterone receptor component 1, sequence (O00264 whole entry): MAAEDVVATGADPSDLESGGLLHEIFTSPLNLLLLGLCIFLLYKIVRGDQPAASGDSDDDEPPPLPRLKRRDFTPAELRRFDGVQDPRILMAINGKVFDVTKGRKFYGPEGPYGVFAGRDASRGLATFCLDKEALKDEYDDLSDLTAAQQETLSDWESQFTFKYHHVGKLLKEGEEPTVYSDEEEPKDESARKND
Ras-related protein Rab-6A, sequence (P20340 whole entry): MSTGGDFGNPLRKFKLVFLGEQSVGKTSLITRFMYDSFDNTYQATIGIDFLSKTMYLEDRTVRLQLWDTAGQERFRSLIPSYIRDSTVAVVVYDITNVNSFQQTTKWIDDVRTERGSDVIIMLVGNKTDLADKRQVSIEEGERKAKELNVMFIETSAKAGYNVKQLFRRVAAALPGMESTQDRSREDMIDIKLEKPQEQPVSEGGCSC
Glycogen synthase kinase-3 beta, sequence (P49841 whole entry): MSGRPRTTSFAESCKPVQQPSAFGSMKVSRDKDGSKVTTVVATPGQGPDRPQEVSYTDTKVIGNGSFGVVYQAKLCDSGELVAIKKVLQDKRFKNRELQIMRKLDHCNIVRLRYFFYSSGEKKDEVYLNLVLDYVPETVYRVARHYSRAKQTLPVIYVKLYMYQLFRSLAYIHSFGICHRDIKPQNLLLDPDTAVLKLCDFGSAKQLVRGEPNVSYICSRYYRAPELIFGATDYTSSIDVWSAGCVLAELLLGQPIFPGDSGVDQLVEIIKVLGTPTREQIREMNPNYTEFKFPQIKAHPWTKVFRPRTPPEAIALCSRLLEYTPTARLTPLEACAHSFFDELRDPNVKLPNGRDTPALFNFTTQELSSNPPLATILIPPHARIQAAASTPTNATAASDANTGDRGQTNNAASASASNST
LIM domain kinase 1, sequence (P53667 whole entry, the tested form may be a part): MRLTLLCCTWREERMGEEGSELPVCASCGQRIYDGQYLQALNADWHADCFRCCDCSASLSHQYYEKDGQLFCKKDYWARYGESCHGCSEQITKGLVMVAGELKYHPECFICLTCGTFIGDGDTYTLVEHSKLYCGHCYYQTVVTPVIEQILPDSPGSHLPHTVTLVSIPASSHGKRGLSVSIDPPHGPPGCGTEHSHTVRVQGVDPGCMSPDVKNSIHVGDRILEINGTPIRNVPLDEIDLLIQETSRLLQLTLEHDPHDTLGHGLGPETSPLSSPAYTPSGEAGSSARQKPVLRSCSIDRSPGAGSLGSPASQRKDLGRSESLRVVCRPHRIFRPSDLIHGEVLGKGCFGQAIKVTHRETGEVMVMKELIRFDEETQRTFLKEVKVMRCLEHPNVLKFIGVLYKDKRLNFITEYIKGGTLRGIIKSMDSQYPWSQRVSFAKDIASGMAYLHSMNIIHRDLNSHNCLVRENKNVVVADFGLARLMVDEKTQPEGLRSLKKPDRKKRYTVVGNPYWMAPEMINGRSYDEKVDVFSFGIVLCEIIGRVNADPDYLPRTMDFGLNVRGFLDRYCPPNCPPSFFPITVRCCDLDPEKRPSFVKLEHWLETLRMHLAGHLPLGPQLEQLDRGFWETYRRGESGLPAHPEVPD

Structure (SMILES)	Kd [1]	Kd [2]	Kd [3]	Kd [4]	Kd [5]	Kd [6]	Kd [7]	Kd [8]	Kd [9]	Kd [10]	Kd [11]	Kd [12]	Kd [13]	Kd [14]	Kd [15]	Kd [16]	Kd [17]	Kd [19]	Kd [18]
C[C@H]1CNCCCN1S(=O)(=O)c1cccc2cncc(F)c12	> 30 µM (inactive)	> 30 µM (inactive)	> 30 µM (inactive)	> 30 µM (inactive)	> 30 µM (inactive)	> 30 µM (inactive)	> 30 µM (inactive)	> 30 µM (inactive)	> 30 µM (inactive)	8.14 µM (active)	> 30 µM (inactive)	> 30 µM (inactive)	> 30 µM (inactive)	> 30 µM (inactive)	> 30 µM (inactive)	> 30 µM (inactive)	> 30 µM (inactive)		
Cn1cc(C2=C(c3cn(C4CCN(Cc5ccccn5)CC4)c4ccccc34)C(=O)NC2=O)c2ccccc21 [ENZASTAURIN]						> 30 µM (inactive)			> 30 µM (inactive)							> 30 µM (inactive)		> 30 µM (inactive)	
O=C(Nc1cc(C(F)(F)F)cc(C(F)(F)F)c1)c1cc(Cl)ccc1O [IMD-0354]	> 30 µM (inactive)	> 30 µM (inactive)	> 30 µM (inactive)	> 30 µM (inactive)	> 30 µM (inactive)	> 30 µM (inactive)	> 30 µM (inactive)		> 30 µM (inactive)	> 30 µM (inactive)	> 30 µM (inactive)		> 30 µM (inactive)	> 30 µM (inactive)	> 30 µM (inactive)		> 30 µM (inactive)	> 30 µM (inactive)	> 30 µM (inactive)
CNC(=O)c1cccc2cc(Oc3ccnc4cc(OCC5(N)CC5)c(OC)cc34)ccc12 [LUCITANIB]	> 30 µM (inactive)	> 30 µM (inactive)	> 30 µM (inactive)	> 30 µM (inactive)	> 30 µM (inactive)	> 30 µM (inactive)	> 30 µM (inactive)	> 30 µM (inactive)	> 30 µM (inactive)	> 30 µM (inactive)	> 30 µM (inactive)	> 30 µM (inactive)	> 30 µM (inactive)	> 30 µM (inactive)		> 30 µM (inactive)	> 30 µM (inactive)	> 30 µM (inactive)	> 30 µM (inactive)
Cn1ncc(Cl)c1-c1cc(C(=O)N[C@H](CN)Cc2ccc(F)c(F)c2)oc1Cl [UPROSERTIB]	> 30 µM (inactive)	> 30 µM (inactive)	> 30 µM (inactive)	> 30 µM (inactive)	> 30 µM (inactive)	> 30 µM (inactive)	> 30 µM (inactive)	> 30 µM (inactive)	> 30 µM (inactive)	> 30 µM (inactive)		> 30 µM (inactive)	> 30 µM (inactive)	> 30 µM (inactive)	> 30 µM (inactive)			> 30 µM (inactive)	> 30 µM (inactive)

Continued, in another order:

Kd [1]	Kd [2]	Kd [3]	Kd [4]	Kd [5]	Kd [6]	Kd [7]	Kd [8]	Kd [9]	Kd [10]	Kd [11]	Kd [12]	Kd [13]	Kd [14]	Kd [15]	Kd [16]	Kd [17]	Kd [19]	Structure (SMILES)	Kd [18]
	> 30 µM (inactive)	> 30 µM (inactive)	0.152 µM (active)	0.901 µM (active)	> 30 µM (inactive)	> 30 µM (inactive)	> 30 µM (inactive)	> 30 µM (inactive)	> 30 µM (inactive)	> 30 µM (inactive)	1.85 µM (active)	> 30 µM (inactive)	> 30 µM (inactive)	> 30 µM (inactive)	> 30 µM (inactive)	> 30 µM (inactive)	> 30 µM (inactive)	Cc1nc2cc(-c3nn(C(C)C)c4ncnc(N)c34)ccc2o1	> 30 µM (inactive)
> 30 µM (inactive)	> 30 µM (inactive)	> 30 µM (inactive)	> 30 µM (inactive)	> 30 µM (inactive)	> 30 µM (inactive)	> 30 µM (inactive)	> 30 µM (inactive)	> 30 µM (inactive)	> 30 µM (inactive)	> 30 µM (inactive)	> 30 µM (inactive)	> 30 µM (inactive)	> 30 µM (inactive)	> 30 µM (inactive)		> 30 µM (inactive)		Nc1ncnc2c1c(-c1cccc(OCc3ccccc3)c1)cn2[C@H]1C[C@@H](CN2CCC2)C1 [AEW-541]	> 30 µM (inactive)
> 30 µM (inactive)	> 30 µM (inactive)	> 30 µM (inactive)	> 30 µM (inactive)		> 30 µM (inactive)	> 30 µM (inactive)	> 30 µM (inactive)	> 30 µM (inactive)	> 30 µM (inactive)		> 30 µM (inactive)	> 30 µM (inactive)	> 30 µM (inactive)	> 30 µM (inactive)	> 30 µM (inactive)	> 30 µM (inactive)	> 30 µM (inactive)	Cc1nc(NC(=O)N2CCC[C@H]2C(N)=O)sc1-c1ccnc(C(C)(C)C(F)(F)F)c1 [ALPELISIB]	> 30 µM (inactive)
> 30 µM (inactive)		> 30 µM (inactive)	> 30 µM (inactive)	> 30 µM (inactive)	> 30 µM (inactive)	> 30 µM (inactive)	> 30 µM (inactive)	> 30 µM (inactive)	7.1 µM (active)	> 30 µM (inactive)	> 30 µM (inactive)	> 30 µM (inactive)	> 30 µM (inactive)	> 30 µM (inactive)	> 30 µM (inactive)	> 30 µM (inactive)	> 30 µM (inactive)	Cc1cc(Nc2ncc(Cl)c(Nc3ccccc3S(=O)(=O)C(C)C)n2)c(OC(C)C)cc1C1CCNCC1 [CERITINIB]	> 30 µM (inactive)
> 30 µM (inactive)	> 30 µM (inactive)	> 30 µM (inactive)	> 30 µM (inactive)	> 30 µM (inactive)	> 30 µM (inactive)	> 30 µM (inactive)	> 30 µM (inactive)	> 30 µM (inactive)	> 30 µM (inactive)	> 30 µM (inactive)	> 30 µM (inactive)	> 30 µM (inactive)	> 30 µM (inactive)		> 30 µM (inactive)	> 30 µM (inactive)	> 30 µM (inactive)	Cc1nc2cc(-n3ncc(C(=O)c4cc5ccccc5[nH]4)c3N)ccc2[nH]1 [FGFR INHIBITOR DEBIO 1347]	> 30 µM (inactive)
